# Test results from ChEMBL document CHEMBL1201862, “PubChem BioAssay data set” (2004).
#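 Exposure lasted 48 hours, with cells grown in 96-well plates and compounds tested at five concentrations. The concentration for 50% growth inhibition is given as GI50.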 The source made the active and inactive calls. Cut-off read from the data, not from the text of the source: active = GI50 up to about 1.1 µM and inactive = higher.
# Columns and labels:
# Experiment in all cases: NCI-60 cell line screen, 48 h
# HL-60 = test system: HL-60
# KM12 = test system: KM12
# SN12C = test system: SN12C
# IGROV-1 = test system: IGROV-1
# UACC-257 = test system: UACC-257
# OVCAR-5 = test system: OVCAR-5
# HCT-15 = test system: HCT-15
# HT-29 = test system: HT-29
# SR = test system: SR
# A498 = test system: A498
# ACHN = test system: ACHN
# HCT-116 = test system: HCT-116
# LOX IMVI = test system: LOX IMVI
# OVCAR-4 = test system: OVCAR-4
# PC-3 = test system: PC-3
# SW-620 = test system: SW-620
# EKVX = test system: EKVX
# A549 = test system: A549
# NCI-H23 = test system: NCI-H23
# BT-549 = test system: BT-549
# K562 = test system: K562
# SK-MEL-28 = test system: SK-MEL-28
# M14 = test system: M14
# Hs-578T = test system: Hs-578T
# SF-539 = test system: SF-539
# DU-145 = test system: DU-145
# MDA-MB-435 = test system: MDA-MB-435
# MDA-MB-231 = test system: MDA-MB-231
# MDA-N = test system: MDA-N
# NCI-H226 = test system: NCI-H226
# COLO 205 = test system: COLO 205
# HOP-92 = test system: HOP-92
# RXF 393 = test system: RXF 393
# 786-0 = test system: 786-0
# NCI-H522 = test system: NCI-H522
# OVCAR-3 = test system: OVCAR-3
# SK-MEL-2 = test system: SK-MEL-2
# SNB-75 = test system: SNB-75
# NCI-H460 = test system: NCI-H460
# T47D = test system: T47D
# CCRF-CEM = test system: CCRF-CEM
# Malme-3M = test system: Malme-3M
# UO-31 = test system: UO-31
# MCF7 = test system: MCF7
# TK-10 = test system: TK-10
# U-251 = test system: U-251
# SK-OV-3 = test system: SK-OV-3
# OVCAR-8 = test system: OVCAR-8
# HOP-62 = test system: HOP-62
# SK-MEL-5 = test system: SK-MEL-5
# MOLT-4 = test system: MOLT-4
# SF-295 = test system: SF-295
# RPMI-8226 = test system: RPMI-8226
# CAKI-1 = test system: CAKI-1
# HCC 2998 = test system: HCC 2998
# SF-268 = test system: SF-268
# NCI/ADR-RES = test system: NCI/ADR-RES
# UACC-62 = test system: UACC-62
# SNB-19 = test system: SNB-19
compound,measurement,setting,value
COC(=O)C(F)C(Br)C(=O)OC (centres undefined),GI50,HL-60,1.95 µM (inactive)
same,GI50,KM12,20.3 µM (inactive)
same,GI50,SN12C,16.9 µM (inactive)
same,GI50,IGROV-1,2.69 µM (inactive)
same,GI50,UACC-257,14.6 µM (inactive)
same,GI50,OVCAR-5,16.4 µM (inactive)
same,GI50,HCT-15,1.82 µM
same,GI50,HT-29,2.57 µM (inactive)
same,GI50,SR,1.37 µM (inactive)
same,GI50,A498,20.9 µM (inactive)
same,GI50,ACHN,1.86 µM (inactive)
same,GI50,HCT-116,2.74 µM (inactive)
same,GI50,LOX IMVI,6.41 µM (inactive)
same,GI50,OVCAR-4,3.39 µM (inactive)
same,GI50,PC-3,3.63 µM (inactive)
same,GI50,SW-620,1.95 µM (inactive)
same,GI50,EKVX,2.19 µM (inactive)
same,GI50,A549,19.7 µM (inactive)
same,GI50,NCI-H23,6.03 µM (inactive)
same,GI50,BT-549,16.2 µM (inactive)
same,GI50,K562,1.63 µM (inactive)
same,GI50,SK-MEL-28,18 µM (inactive)
same,GI50,M14,5.79 µM (inactive)
same,GI50,Hs-578T,16.6 µM (inactive)
same,GI50,SF-539,5.48 µM (inactive)
same,GI50,DU-145,9.55 µM (inactive)
same,GI50,MDA-MB-435,8.38 µM (inactive)
same,GI50,MDA-MB-231,14.6 µM (inactive)
same,GI50,MDA-N,8.51 µM (inactive)
same,GI50,NCI-H226,20.9 µM (inactive)
same,GI50,COLO 205,1.67 µM (inactive)
same,GI50,HOP-92,2.56 µM (inactive)
same,GI50,RXF 393,2.18 µM (inactive)
same,GI50,786-0,2.52 µM (inactive)
same,GI50,NCI-H522,1.43 µM (inactive)
same,GI50,OVCAR-3,2.11 µM (inactive)
same,GI50,SK-MEL-2,16.1 µM (inactive)
same,GI50,SNB-75,12.3 µM (inactive)
same,GI50,NCI-H460,18.9 µM (inactive)
same,GI50,T47D,2.15 µM (inactive)
same,GI50,CCRF-CEM,0.684 µM (active)
same,GI50,Malme-3M,6.47 µM (inactive)
same,GI50,UO-31,1.89 µM (inactive)
same,GI50,MCF7,3.42 µM (inactive)
same,GI50,TK-10,2.38 µM (inactive)
same,GI50,U-251,3.05 µM (inactive)
same,GI50,SK-OV-3,18.5 µM (inactive)
same,GI50,OVCAR-8,3.63 µM (inactive)
same,GI50,HOP-62,16.3 µM (inactive)
same,GI50,SK-MEL-5,18.5 µM (inactive)
same,GI50,MOLT-4,0.9 µM (active)
same,GI50,SF-295,26.4 µM (inactive)
same,GI50,RPMI-8226,1.41 µM (inactive)
same,GI50,CAKI-1,2.35 µM (inactive)
same,GI50,HCC 2998,8 µM (inactive)
same,GI50,SF-268,7.71 µM (inactive)
same,GI50,NCI/ADR-RES,2.94 µM (inactive)
same,GI50,UACC-62,15.9 µM (inactive)
same,GI50,SNB-19,30.7 µM (inactive)
